This is an account of results in ChEMBL document CHEMBL4513160, “CO-ADD screening of MMV (CH) - Small Polar Library”.

In brackets after ≈: the same amount, converted by molar mass. Where only a bound is given, the exact number is not on record here.

The first assay concerns Pseudomonas aeruginosa. Put plainly: Antibacterial activity against Pseudomonas aeruginosa PAO397 [PAO1 d(mexAB-oprM) d(mexCD-oprJ) d(mexEF-oprN) d(mexJKL) d(mexXY) d(opmH)] (CO-ADD:GN_211); MIC in CAMBH media using NBS plates, by OD(600). In kind it is functional. The note with it: ASSAY_TEST Inhibition of Bacterial Growth, detection method Absorption (OD600), MEDIA CAMHB, plate type 384well, CORNING #3640, time 18 hr.
Molecule `Cc1cccc(OCC(O)Cn2ccnc2C)c1` (configuration not stated) registered an MIC greater than 300 µM.
The same measure, in the same setting: then `O=C(c1cnsn1)N1CCN(c2ccccn2)CC1`, with greater than 300 µM.
The same measure, in the same setting: the figure for `CCc1c(C)nc2sc(C(N)=O)c(N)c2c1C` is greater than 300 µM.
Still for that read-out and setting: the figure for `Nc1ccnc(-c2ccccc2)c1` is greater than 300 µM; for `NCc1cccc(-c2ccccn2)n1` it is 200 µM (≈ 37 µg/mL).
For the molecule `O=C(NCCO)Nc1cc(F)ccc1N1CCCCC1`, the MIC was determined as 300 µM (≈ 84.4 µg/mL).
Same read-out and setting: the figure for `COc1ccc(C2NC(=O)c3cccnc3N2)cc1F` (configuration not stated) is greater than 300 µM.
Still for that read-out and setting: then `O=C(c1c(O)cccc1F)N1CCc2cnccc21`, with greater than 300 µM; and `COc1ccc(OC)c(NC(=O)c2ccccn2)c1`, with greater than 300 µM.
The same measure, in the same setting: then `NCCNS(=O)(=O)c1ccc(F)c(C(F)(F)F)c1`, with greater than 300 µM.
Molecule `Nc1cnccc1N1CCCCC1` gave an MIC greater than 300 µM.
Still for that read-out and setting: the figure for `Cc1cc(NC(C)CO)nc2ccccc12` (configuration not stated) is greater than 300 µM; for `CCCOc1ccc(CN)cc1` it is greater than 300 µM.
Same read-out and setting: the figure for `NC(=O)CSc1nc(-c2ccc(Br)cc2)c[nH]1` is 300 µM (≈ 93.7 µg/mL).
As to `FC(F)Oc1cccc(N2CCNCC2)c1`, the MIC is greater than 300 µM.
Turning to `Cc1cccc(C(=O)Nc2ncc(C)s2)n1`, the MIC is greater than 300 µM.
Molecule `Cc1ccc(C2(O)CCNC2)cc1` (configuration not stated) displayed an MIC greater than 300 µM.
Same read-out and setting: then `NCC(CO)Cc1ccc(Br)cc1` (configuration not stated), with greater than 300 µM; and `CN(C)c1ccc(-c2[nH][nH]c(=O)c2CCN)cc1`, with greater than 300 µM.
Same read-out and setting: the figure for `Cc1ccc2c(N)noc2n1` is 135 µM (≈ 20.1 µg/mL).
On the same count and under the same terms, the figure for `CC(Sc1n[nH]c(-c2ccccn2)n1)C(=O)N(C)C` (configuration not stated) is greater than 300 µM; for `OCCNCCNCc1ccc(-c2ccccc2Cl)o1` it is greater than 300 µM; for `NCCNS(=O)(=O)c1ccc(-c2ccccc2)cc1` it is greater than 300 µM.
As to `Cn1ccc(C(=O)Nc2ccc(Br)cn2)n1`, the MIC is greater than 300 µM.
Still for that read-out and setting: the figure for `CCn1cc(C(=O)Nc2ccc(Br)cn2)cn1` is greater than 300 µM; for `CS(=O)(=O)N1CCSc2ccc(Cl)cc21` it is greater than 300 µM; for `OCC(O)CNc1ccnc2ccc(Br)cc12` (configuration not stated) it is greater than 300 µM.
As for `NCC1CCN(CCc2ccccc2)C1` (configuration not stated), the MIC was greater than 300 µM.
On the same count and under the same terms, then `CC(CO)NC(=O)Nc1nc(-c2ccccc2)ns1` (configuration not stated), with 200 µM (≈ 55.7 µg/mL).

For another assay, the system named is Pseudomonas aeruginosa. Put plainly: microbe, parasite or virus in culture. The note with it: ATCC 27853, 18 h, ASSAY_TEST Inhibition of Bacterial Growth, detection method Absorption (OD600), MEDIA CAMHB, plate type 384well, NBS, CORNING #3640.
Description: Antibacterial activity against Pseudomonas aeruginosa ATCC 27853 (CO-ADD:GN_042); MIC in CAMBH media using NBS plates, by OD(600)
`Cc1cccc(OCC(O)Cn2ccnc2C)c1` (configuration not stated) registered an MIC greater than 300 µM.
Same read-out and setting: the figure for `O=C(c1cnsn1)N1CCN(c2ccccn2)CC1` is greater than 300 µM.
Regarding `CCc1c(C)nc2sc(C(N)=O)c(N)c2c1C`, the MIC is greater than 300 µM.
The same measure, in the same setting: the figure for `Nc1ccnc(-c2ccccc2)c1` is greater than 300 µM.
For `NCc1cccc(-c2ccccn2)n1`, the MIC was 300 µM (≈ 55.6 µg/mL).
Turning to `O=C(NCCO)Nc1cc(F)ccc1N1CCCCC1`, the MIC is greater than 300 µM.
On the same count and under the same terms, the figure for `COc1ccc(C2NC(=O)c3cccnc3N2)cc1F` (configuration not stated) is greater than 300 µM.
Still for that read-out and setting: then `O=C(c1c(O)cccc1F)N1CCc2cnccc21`, with greater than 300 µM; and `COc1ccc(OC)c(NC(=O)c2ccccn2)c1`, with greater than 300 µM; and `NCCNS(=O)(=O)c1ccc(F)c(C(F)(F)F)c1`, with greater than 300 µM.
Still for that read-out and setting: the figure for `Nc1cnccc1N1CCCCC1` is greater than 300 µM; for `Cc1cc(NC(C)CO)nc2ccccc12` (configuration not stated) it is greater than 300 µM; for `CCCOc1ccc(CN)cc1` it is greater than 300 µM.
In turn, `NC(=O)CSc1nc(-c2ccc(Br)cc2)c[nH]1` showed an MIC greater than 300 µM.
`FC(F)Oc1cccc(N2CCNCC2)c1` returned an MIC greater than 300 µM.
`Cc1cccc(C(=O)Nc2ncc(C)s2)n1` displayed an MIC greater than 300 µM.
On the same count and under the same terms, the figure for `Cc1ccc(C2(O)CCNC2)cc1` (configuration not stated) is 300 µM (≈ 53.2 µg/mL).
On to `NCC(CO)Cc1ccc(Br)cc1` (configuration not stated), for which the MIC was greater than 300 µM.
Still for that read-out and setting: the figure for `CN(C)c1ccc(-c2[nH][nH]c(=O)c2CCN)cc1` is greater than 300 µM.
Same read-out and setting: then `Cc1ccc2c(N)noc2n1`, with 135 µM (≈ 20.1 µg/mL); and `CC(Sc1n[nH]c(-c2ccccn2)n1)C(=O)N(C)C` (configuration not stated), with greater than 300 µM; and `OCCNCCNCc1ccc(-c2ccccc2Cl)o1`, with greater than 300 µM.
Still for that read-out and setting: the figure for `NCCNS(=O)(=O)c1ccc(-c2ccccc2)cc1` is greater than 300 µM; for `Cn1ccc(C(=O)Nc2ccc(Br)cn2)n1` it is greater than 300 µM.
As to `CCn1cc(C(=O)Nc2ccc(Br)cn2)cn1`, the MIC was greater than 300 µM.
Take `CS(=O)(=O)N1CCSc2ccc(Cl)cc21`: the MIC is greater than 300 µM.
Still for that read-out and setting: the figure for `OCC(O)CNc1ccnc2ccc(Br)cc12` (configuration not stated) is greater than 300 µM; for `NCC1CCN(CCc2ccccc2)C1` (configuration not stated) it is greater than 300 µM; for `CC(CO)NC(=O)Nc1nc(-c2ccccc2)ns1` (configuration not stated) it is greater than 300 µM.

The subject of a further assay is Acinetobacter baumannii. Put plainly: microbe, parasite or virus in culture. The note with it: ATCC 19606, 18 h, ASSAY_TEST Inhibition of Bacterial Growth, detection method Absorption (OD600), MEDIA CAMHB, plate type 384well, NBS, CORNING #3640.
Description: Antibacterial activity against Acinetobacter baumannii ATCC 19606 (CO-ADD:GN_034); MIC in CAMBH media using NBS plates, by OD600
In turn, `Cc1cccc(OCC(O)Cn2ccnc2C)c1` (configuration not stated) had an MIC greater than 300 µM.
Same read-out and setting: the figure for `O=C(c1cnsn1)N1CCN(c2ccccn2)CC1` is greater than 300 µM.
Still for that read-out and setting: the figure for `CCc1c(C)nc2sc(C(N)=O)c(N)c2c1C` is greater than 300 µM.
On the same count and under the same terms, the figure for `Nc1ccnc(-c2ccccc2)c1` is greater than 300 µM; for `NCc1cccc(-c2ccccn2)n1` it is greater than 300 µM; for `O=C(NCCO)Nc1cc(F)ccc1N1CCCCC1` it is greater than 300 µM.
The molecule `COc1ccc(C2NC(=O)c3cccnc3N2)cc1F` (configuration not stated) displayed an MIC greater than 300 µM.
As to `O=C(c1c(O)cccc1F)N1CCc2cnccc21`, the MIC is greater than 300 µM.
In turn, `COc1ccc(OC)c(NC(=O)c2ccccn2)c1` displayed an MIC greater than 300 µM.
Still for that read-out and setting: the figure for `NCCNS(=O)(=O)c1ccc(F)c(C(F)(F)F)c1` is greater than 300 µM; for `Nc1cnccc1N1CCCCC1` it is greater than 300 µM; for `Cc1cc(NC(C)CO)nc2ccccc12` (configuration not stated) it is greater than 300 µM.
Same read-out and setting: then `CCCOc1ccc(CN)cc1`, with greater than 300 µM; and `NC(=O)CSc1nc(-c2ccc(Br)cc2)c[nH]1`, with greater than 300 µM; and `FC(F)Oc1cccc(N2CCNCC2)c1`, with greater than 300 µM.
Same read-out and setting: then `Cc1cccc(C(=O)Nc2ncc(C)s2)n1`, with greater than 300 µM.
`Cc1ccc(C2(O)CCNC2)cc1` (configuration not stated) displayed an MIC greater than 300 µM.
As for `NCC(CO)Cc1ccc(Br)cc1` (configuration not stated), the MIC was greater than 300 µM.
Still for that read-out and setting: then `CN(C)c1ccc(-c2[nH][nH]c(=O)c2CCN)cc1`, with greater than 300 µM; and `Cc1ccc2c(N)noc2n1`, with greater than 300 µM.
On the same count and under the same terms, then `CC(Sc1n[nH]c(-c2ccccn2)n1)C(=O)N(C)C` (configuration not stated), with greater than 300 µM.
Molecule `OCCNCCNCc1ccc(-c2ccccc2Cl)o1` displayed an MIC greater than 300 µM.
On the same count and under the same terms, then `NCCNS(=O)(=O)c1ccc(-c2ccccc2)cc1`, with greater than 300 µM.
On the same count and under the same terms, the figure for `Cn1ccc(C(=O)Nc2ccc(Br)cn2)n1` is greater than 300 µM; for `CCn1cc(C(=O)Nc2ccc(Br)cn2)cn1` it is greater than 300 µM.
`CS(=O)(=O)N1CCSc2ccc(Cl)cc21` showed an MIC greater than 300 µM.
Same read-out and setting: the figure for `OCC(O)CNc1ccnc2ccc(Br)cc12` (configuration not stated) is greater than 300 µM; for `NCC1CCN(CCc2ccccc2)C1` (configuration not stated) it is greater than 300 µM.
Still for that read-out and setting: the figure for `CC(CO)NC(=O)Nc1nc(-c2ccccc2)ns1` (configuration not stated) is greater than 300 µM.
